Patent US20250188080A1, “IMIDAZOLONYLQUINOLINE COMPOUNDS AND THERAPEUTIC USES THEREOF” (Merck Patent GmbH, priority 2019, published 2025)

Legend:
[1] = Microsomal stability (intrinsic clearance), human; type: in vitro ADME; parameters: microsomal CLint: dose or concentration left out as unconfirmed; details: for microsomal CLint: liver microsomes, pH 7.4
Excerpt: A microsomal stability assay is used to measure in vitro clearance (Clint). The assay involves measuring the rate of disappearance of a compound due to its intrinsic attitude to be metabolized (“intrinsic” meaning that the disappearance is not affected by other properties like permeability, binding etc. that play a role when quantifying in vivo clearance). The microsomal stability (intrinsic clearance, Clint) and, thus, metabolic stability is generally given as μl/min/mg protein. It can be visualized as the volume of solution that 1 mg of microsomes is able to clear of the compound in one minute.
A Tecan Genesis workstation (RSP 150/8) was used for to perform the microsomal incubations. Analysis was carried out using a Waters ACQUITY UPLC system coupled to an ABSciex API3000 mass spectrometer. Data analysis was performed using Assay Explorer (Symyx).
• Potassium phosphate buffer: 0.05 M potassium phosphate buffer pH 7.4 containing 1 mM MgCl2 • NADPH (nicotinamide adenine dinucleotide phosphate): 22.5 mg NADPH-Na4 in 1.8 ml potassium phosphate buffer • Acetonitrile: 50 Vol % acetonitrile (1 volume acetonitrile, 1 volume water) • DMSO: 20 Vol % DMSO in water • Stock solution of 20 mg/ml human or mouse liver microsomes (protein)/ml in phosphate buffer • Stock solution of 10 mM compound in 100% DMSO
Dilution of test compounds was done in 2 steps starting from a 10 mM stock solution of the respective compound in 100% DMSO. First 4 μl stock solution was added to 196 μl of 20 Vol % DMSO. In a second step, 10 μl of the first dilution were added to 1590 μl potassium phosphate buffer to achieve a final concentration of 1.25 μM in the final compound dilution. Thus, the amount of organic solvent in the assay was kept to a minimum (<1%).
The human or mouse liver microsome (protein) solution to be used in the assay was prepared by mixing 750 μl stock solution (20 mg/ml) and 2250 μl potassium phosphate buffer to a final concentration of 5 mg/ml.
Incubation was carried out on a 96 deep well incubation plate. […]

[2] = target: T1, human phosphodiesterase-4D2 (Homo sapiens, UniProt Q08499); assay: PDE4D2 assay (Cerep); type: biochemical
T1 construct: purchased Cerep 4077; host or cells: Sf9 cells
T1 sequence (Q08499 303-809 limits assumed): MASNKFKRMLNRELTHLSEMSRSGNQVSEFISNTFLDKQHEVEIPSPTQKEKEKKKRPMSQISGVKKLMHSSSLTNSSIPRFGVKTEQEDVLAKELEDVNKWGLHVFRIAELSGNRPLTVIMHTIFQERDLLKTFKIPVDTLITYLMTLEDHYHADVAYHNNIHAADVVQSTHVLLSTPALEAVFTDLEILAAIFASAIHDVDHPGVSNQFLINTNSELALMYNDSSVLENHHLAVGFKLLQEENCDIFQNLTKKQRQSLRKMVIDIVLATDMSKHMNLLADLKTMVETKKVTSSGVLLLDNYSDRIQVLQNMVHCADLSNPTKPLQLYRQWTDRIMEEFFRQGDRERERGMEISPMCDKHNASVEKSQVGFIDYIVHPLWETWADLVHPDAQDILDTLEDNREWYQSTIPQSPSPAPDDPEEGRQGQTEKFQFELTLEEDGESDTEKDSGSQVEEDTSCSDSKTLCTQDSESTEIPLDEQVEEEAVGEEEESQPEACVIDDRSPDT
Experimental: A commercially available assay of Cerep was used (Catalog ref. 4077; SOP no 1C1045) The assay is designed to evaluate the effects of test compounds on the activity of the human phosphodiesterase-4D2 quantified by measuring the formation of 5′AMP from cAMP using a human recombinant enzyme expressed in Sf9 cells.
The test compound, reference compound or water (control) are added to a buffer containing 40 mM Tris/HCl (pH 7.4) and 8 mM MgCl2, 450 nM cAMP and 0.0125 μCi [^3H]cAMP.
Thereafter, the reaction is initiated by addition of the enzyme (about 1.5 U) and the mixture is incubated for 20 min at 22° C.
For basal control measurements, the enzyme is omitted from the reaction mixture.
Following incubation SPA (scintillation proximity assay) beads are added.
After 30 min at 22° C. under shaking, the amount of [^3H]5′AMP is quantified with a scintillation counter (Topcount, Packard).
The results are expressed as a percent inhibition of the control enzyme activity.
The standard inhibitory reference compound is Ro 20-1724, which is tested in each experiment at several concentrations to obtain an inhibition curve from which its IC50 value is calculated.

| microsomal CLint [1] | IC50 [2] | CLint (human) ([1]; human microsomes) | Structure (SMILES) |
| --- | --- | --- | --- |
| 19 µL/min/mg | 600 nM |  | COc1cc2ncc3c(c2cc1-c1cn(C)nc1C)n(-c1c(F)cncc1OC)c(=O)n3C [Compound Y, 8-(1,3-dimethyl-1H-pyrazol-4-yl)-1-(3-fluoro-5-methoxypyridin-4-yl)-7-methoxy-3-methyl-1,3-dihydroimidazo[4,5-c]quinolin-2-one, reference compound] |
|  | 440 nM | < 10 μl/min/mg protein | COc1cc2ncc3c(c2cc1-c1cn(C)nc1C)n(-c1c(F)cncc1OC)c(=O)n3C (single isomer, unassigned) [Compound 2, 8-(1,3-Dimethyl-1H-pyrazol-4-yl)-1-(Ra)-(3-fluoro-5-methoxy-pyridin-4-yl)-7-methoxy-3-methyl-1,3-dihydro-imidazo[4,5-c]quinolin-2-one] |
| < 10 µL/min/mg | 3000 nM |  | COc1cc2ncc3c(c2cc1-c1cn(C)nc1C)n(-c1c(F)cncc1OC)c(=O)n3C (single isomer, unassigned) [Compound 1, 8-(1,3-Dimethyl-1H-pyrazol-4-yl)-1-(Sa)-(3-fluoro-5-methoxy-pyridin-4-yl)-7-methoxy-3-methyl-1,3-dihydro-imidazo[4,5-c]quinolin-2-one] |
